For experiment [1], the target named is T1, Saccharomyces cerevisiae α-glucosidase (Saccharomyces cerevisiae, UniProt P53341).
T1 construct: purchased Shanghai Yuanye Biotechnology Co., Shanghai, China Lot No. M23HS178879 (catalogue number not given)
The experiment in a line: biochemical. Particulars: 5 mM pNPG, PBS pH 6.8, 37 °C. Here is the method: (§1) The α-glucosidase inhibitory effects of flavonoids were evaluated as in a previous report with slight modifications (including changes in the concentrations of the enzyme, substrate, and Na2CO3). Briefly, 50 μL of phosphate-buffered saline (PBS, 0.1 M, pH 6.8), the test compound, and α-glucosidase (0.2 U/mL) were preincubated in a 96-well plate at 37 °C for 10 min. The reaction was then initiated by adding 50 μL of 5 mM pNPG as the substrate. Subsequently, the 96-well plate was incubated for an additional 30 min at 37 °C, then 50 μL of 0.2 M Na2CO3 was added to terminate the reaction. Absorbance was measured at under 405 nm.

Experiment [2] addresses T2, α-glucosidase (Saccharomyces cerevisiae, UniProt P53341).
T2 construct: purchased Shanghai Yuanye Biotechnology Co., Shanghai, China Lot No. M23HS178879 (catalogue number not given)
Nature of the experiment: Inhibitory kinetic analysis (Lineweaver–Burk plot). It is filed as biochemical. Particulars: Lineweaver–Burk plots, pNPG 0.31–20 mM. Here is the method: The type of inhibition was determined by using the kinetics curve and the Lineweaver–Burk plot. […] These compounds were incubated with α-glucosidase at 37 °C for 30 min. After incubation, various concentrations of pNPG (0.31–20 mM) were added, and absorbance was measured at 405 nm. The Lineweaver–Burk plot was obtained by plotting 1/[S] on the x-axis and 1/v on the y-axis, where [S] represents substrate concentration and v represents the reaction velocity.

The target in experiment [3] is T2, α-glucosidase. The experiment in a line: biochemical. Type of experiment: binding. Particulars: for binding to α-glucosidase (SPR): result in words. Here is the method:
SPR analysis was performed using the Biacore 8K system (GE Healthcare, Uppsala, Sweden). α-Glucosidase (0.05 mg/mL) was fixed on the CM5 sensor chip by an amine coupling kit. Subsequently, various concentrations of the 16 flavonoids dissolved in 5% DMSO were continuously injected onto the surface of α-glucosidase coated surface. After each sample injection, the sensor chip surface was washed and regenerated with running buffer (PBS) at a flow rate of 30 µL/min. According to the 1:1 Langmuir model, the equilibrium dissociation constant (KD) was calculated by the Biacore evaluation software. For sensorgrams without significant kinetic features, the KD values were calculated using the steady-state analysis.

Experiment [4] concerns the target T2, α-glucosidase. Nature of the experiment: CD spectroscopy, secondary structure of α-glucosidase (BeStSel). Particulars: for β-turn: free enzyme 11.7; for β-sheet: free enzyme 28.8; for random coil: free enzyme 45.2; for α-helix: free enzyme 14.4. As for the experimental part: CD spectra in the far-UV region (190–250 nm) were scanned by using a CD spectrometer (JASCO-1.5 Tokyo, Japan). […] The slit width was set to 1 nm, and the baseline was calibrated with PBS (phosphate buffered saline). CD spectra were averaged over three scans under a constant nitrogen flow, with the buffer signal subtracted. The results were analyzed using the BeStSel database (https://bestsel.elte.hu/index.php, accessed on 16 May 2025).

Experiment [5] relates to normal C57BL/6J mice. Nature of the experiment: Oral sucrose test, postprandial blood glucose. Particulars: for Blood glucose levels: 30 min after sucrose 4 g/kg, n = 8, in mmol/L (unit assumed); for Rate of blood glucose reduction: vs model group, 30 min after sucrose. It is filed as in vivo. The text has this:
Male C57BL/6J mice of SPF grade, aged 6–8 weeks and weighing 18–22 g, were obtained from the Experimental Animal Science Department of Peking University. The mice were housed in a controlled environment with a 12:12 light/dark cycle and a constant temperature. They were provided with standard pellet feed and given free access to drinking water. To ensure acclimatization, the mice were allowed to adjust to the diet and housing conditions for one week prior to the experiment. All animal experiments were performed in compliance with the relevant laws and institutional guidelines for the care and use of laboratory animals in China. The experiments were approved by the Laboratory Animal Management and Ethics Committee of Peking University (LA2021443). Additionally, the certification number for the laboratory animal personnel is 1120111300011.
The 16 flavonoids were subsequently evaluated for their potential antihyperglycemic effects by using the oral sucrose test, which is commonly used to evaluate intestinal α-glucosidase inhibition in vivo [62]. Normal C57BL/6J mice were randomly divided into model groups and the 16 flavonoid compound groups (n = 8 per group), respectively. The flavonoids at different concentrations were suspended in 0.5% sodium carboxymethyl cellulose (CMC-Na). […] Fifteen minutes after drug administration, the mice were given a sucrose solution (4 g/kg). Blood samples were collected from the tail vein at 30 min after sucrose loading, and blood glucose levels were measured using an Accu-Chek Performa glucometer (Roche Diagnostics, SN: 79508621393, Shanghai, China). The rate of blood glucose reduction was calculated using the following Formula (4):(4) The rate of blood glucose reduction%=the model blood glucose-the sample blood glucose/the model blood glucose×100%

Experiment [6] addresses T2, α-glucosidase. The experiment in a line: Mixture effects of flavonoid combinations on α-glucosidase. Type of experiment: biochemical. Particulars: for IC05 / IC15 (concentration corresponding to a 15% inhibition rate): calculated from the dose–response curve. As for the experimental part: as §1
The inhibitory activity of the composition was evaluated using the same method described in Section 3.2. […] The combination index (CI, Formula (3)) was subsequently used to assess the interactions between the compounds [60].(2) Y=Bottom+Top−Bottom/1+10^^((LogIC50−X)×HillSlope)
In Formula (3), (D)j represents the concentration of component j in the mixture needed to achieve an effect of x, while (Dx)j denotes the concentration of component j required to produce the same effect when acting alone. Here, x refers to the inhibition rate produced by the composition, and n indicates the number of individual compounds in the composition.

Where [7] appears, read: molar ratio 10:1, α-glucosidase 4 μM.
[8] abbreviates: molar ratio 40:1, α-glucosidase 4 μM.
[9] abbreviates: molar ratio compound:α-glucosidase 10:1, α-glucosidase 4 μM.

SMILES strings stand for the structures. Where two headings read alike, the source gives them in different places.

As a reminder, the IC50 is the point on the concentration scale where inhibition reaches its midpoint. What is called Kd is the free concentration of one partner at which half of the binding sites on the other are occupied at equilibrium, for simple one-to-one binding.

T2 sequence (P53341 whole entry): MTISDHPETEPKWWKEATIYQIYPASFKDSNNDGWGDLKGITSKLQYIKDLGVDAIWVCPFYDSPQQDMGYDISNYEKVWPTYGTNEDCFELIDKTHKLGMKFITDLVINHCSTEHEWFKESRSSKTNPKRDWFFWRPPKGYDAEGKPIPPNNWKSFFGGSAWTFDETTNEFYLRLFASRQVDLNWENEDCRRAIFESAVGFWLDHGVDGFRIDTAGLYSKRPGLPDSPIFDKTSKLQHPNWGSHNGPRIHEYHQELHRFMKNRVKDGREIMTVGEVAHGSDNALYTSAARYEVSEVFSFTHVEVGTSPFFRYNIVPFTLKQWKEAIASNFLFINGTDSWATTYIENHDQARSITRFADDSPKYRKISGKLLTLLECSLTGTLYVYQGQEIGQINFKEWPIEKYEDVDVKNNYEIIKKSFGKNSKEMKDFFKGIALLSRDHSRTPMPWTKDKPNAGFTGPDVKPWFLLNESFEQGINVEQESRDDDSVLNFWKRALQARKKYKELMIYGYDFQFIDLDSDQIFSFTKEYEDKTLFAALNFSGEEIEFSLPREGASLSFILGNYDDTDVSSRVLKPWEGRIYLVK
T1 sequence (P53341 whole entry): as above

Regarding `Oc1ccc([C@H]2COc3cc(O)ccc3C2)cc1` [C29, equol], in experiment [1] (IC50, α-glucosidase 0.2 U/mL), half-maximal inhibition (IC50) required 131 ± 7.65 µM. In addition, the “type of inhibition on α-glucosidase” value in experiment [2] is recorded as “mixed-type inhibitors”. Besides, the Kd in experiment [3] was 849 µM. Besides, in experiment [4] (setting [7]), the β-turn is 14.5%, the β-sheet was found to be 23.5% and the random coil was found to be 51.1%. For the same compound, in experiment [4] (setting [8]), the β-turn is 13.2%, the α-helix turned out to be 8.50%, the β-sheet was found to be 23.4% and the random coil was 55.0%. Besides, in experiment [4] (setting [9]), the α-helix was 10.9%. Besides, in experiment [5] (10 mg/kg oral), the Blood glucose levels turned out to be 14.70 ± 1.36 and the “Rate of blood glucose reduction” value came out at 8.20%. For the same compound, in experiment [5] (50 mg/kg oral), the Blood glucose levels worked out at 13.93 ± 0.62 and the “Rate of blood glucose reduction” value was determined as 13.04%. For the same compound, in experiment [5] (100 mg/kg oral), the Blood glucose levels is recorded as 12.56 ± 1.87 and the “Rate of blood glucose reduction” value is reported as 21.55%.

With `COc1ccc2c(c1OC)OC1c3ccc(O[C@@H]4O[C@H](CO)[C@@H](O)[C@H](O)[C@H]4O)cc3OCC21` (stereo partly shown) [C19, astrapterocarpan-3-O-glucoside], the IC50 in experiment [1] (α-glucosidase 0.2 U/mL, read-out: IC50) was 348 ± 32.4 µM. Besides, the “type of inhibition on α-glucosidase” value in experiment [2] was “non-competitive inhibitors”. The dissociation constant (Kd) in experiment [3] (kinetic model (1:1 Langmuir), read-out: KD) is 30 µM. In experiment [4] (setting [7]), the β-turn came to 10.7%, the β-sheet is 26.7% and the random coil was 39.9%. Besides, in experiment [4] (setting [8]), the β-turn came out at 10.2%, the α-helix came to 43.2%, the β-sheet is listed as 6.70% and the random coil came out at 39.9%. Also, the α-helix in experiment [4] (setting [9]) amounted to 22.6%. In experiment [5] (1 mg/kg oral), the Blood glucose levels is on record as 14.30 ± 1.16 and the “Rate of blood glucose reduction” value was 7.37%. In experiment [5] (10 mg/kg oral), the Blood glucose levels is listed as 13.71 ± 0.78 and the “Rate of blood glucose reduction” value turned out to be 11.17%. For the same compound, in experiment [5] (100 mg/kg oral), the Blood glucose levels is reported as 13.31 ± 0.58 and the “Rate of blood glucose reduction” value is given as 13.77%. Also, the IC05 in experiment [6] is 82.58 µM.

As to `COc1ccc(C2COc3cc(O)ccc3C2)c(O)c1OC` (stereo not shown) [C17, isomucronulatol], in experiment [1] (IC50, α-glucosidase 0.2 U/mL), inhibition was half-maximal at 354 ± 40.4 µM (IC50). Besides, the “type of inhibition on α-glucosidase” value in experiment [2] is recorded as “mixed-type inhibitors”. Besides, in experiment [3], the Kd is > 2000 µM and the “binding to α-glucosidase (SPR)” value is listed as “did not show binding”. In addition, in experiment [4] (setting [7]), the β-turn is recorded as 11.7%, the β-sheet is given as 24.3% and the random coil worked out at 49.4%. Besides, in experiment [4] (setting [8]), the β-turn worked out at 13.6%, the α-helix is on record as 17.4%, the β-sheet is listed as 31.3% and the random coil was 37.8%. In addition, the α-helix in experiment [4] (setting [9]) was 14.6%. Also, in experiment [5] (10 mg/kg oral), the Blood glucose levels worked out at 14.46 ± 0.69 and the “Rate of blood glucose reduction” value is reported as 6.32%. Further, in experiment [5] (50 mg/kg oral), the Blood glucose levels was 14.29 ± 0.80 and the “Rate of blood glucose reduction” value is reported as 7.45%. Moreover, in experiment [5] (100 mg/kg oral), the Blood glucose levels was determined as 13.24 ± 1.18 and the “Rate of blood glucose reduction” value was 14.25%.

On to `O=c1c(O[C@@H]2O[C@H](CO)[C@@H](O)[C@H](O)[C@H]2O)c(-c2ccc(O)c(O)c2)oc2cc(O)cc(O)c12` [C10, isoquercitrin], for which the IC50 in experiment [1] (IC50, α-glucosidase 0.2 U/mL) amounted to 71.7 ± 7.62 µM. The “type of inhibition on α-glucosidase” value in experiment [2] is “competitive inhibitor”. For the same compound, in experiment [4] (setting [7]), the β-turn came to 14.2%, the β-sheet is given as 24.0% and the random coil was 49.3%. Further, in experiment [4] (setting [8]), the β-turn was found to be 13.1%, the α-helix came out at 12.5%, the β-sheet is recorded as 16.6% and the random coil is recorded as 57.8%. For the same compound, the α-helix in experiment [4] (setting [9]) is 12.4%. Further, in experiment [5] (10 mg/kg oral), the Blood glucose levels was 12.41 ± 2.07 and the “Rate of blood glucose reduction” value came out at 7.66%. Further, in experiment [5] (25 mg/kg oral), the Blood glucose levels turned out to be 12.21 ± 2.08 and the “Rate of blood glucose reduction” value was found to be 9.15%. In experiment [5] (50 mg/kg oral), the Blood glucose levels is 10.91 ± 1.78 and the “Rate of blood glucose reduction” value was found to be 18.82%. The “IC15 (concentration corresponding to a 15% inhibition rate)” value in experiment [6] is 40 µM. Moreover, in experiment [6] (each compound alone at its IC15 concentration, Com1 = mixture of the four at IC15 (117 μM in total)), the “inhibition rate against α-glucosidase” value is listed as 14.93 ± 4.73%.

The compound `O=C(/C=C/c1ccc(O)cc1)c1ccc(O)cc1O` [C4, isoliquiritigenin] had a concentration for half-maximal inhibition (IC50) in experiment [1] (IC50, α-glucosidase 0.2 U/mL) of 69.1 ± 10.7 µM. Also, the “type of inhibition on α-glucosidase” value in experiment [2] is “mixed-type inhibitors”. In experiment [3], the dissociation constant (Kd) is > 2000 µM and the “binding to α-glucosidase (SPR)” value was “did not show binding”. Also, in experiment [4] (setting [7]), the β-turn stood at 11.7%, the β-sheet is reported as 31.0% and the random coil came out at 42.3%. Also, in experiment [4] (setting [8]), the β-turn is 12.1%, the α-helix is reported as 14.1%, the β-sheet was 24.1% and the random coil stood at 49.7%. Further, in experiment [4] (setting [9]), the α-helix turned out to be 15.0%. Besides, in experiment [5] (10 mg/kg oral), the Blood glucose levels amounted to 12.81 ± 1.00 and the “Rate of blood glucose reduction” value is recorded as 8.07%. Besides, in experiment [5] (50 mg/kg oral), the Blood glucose levels stood at 13.05 ± 1.44 and the “Rate of blood glucose reduction” value was 6.37%. In experiment [5] (250 mg/kg oral), the Blood glucose levels is on record as 11.90 ± 0.62 and the “Rate of blood glucose reduction” value was 14.62%. Besides, in experiment [6], the IC05 is 9.73 µM and the “IC15 (concentration corresponding to a 15% inhibition rate)” value was 20 µM.

Source of the values: publication PMC12114633, “α-Glucosidase Inhibition Mechanism and Anti-Hyperglycemic Effects of Flavonoids from Astragali Radix and Their Mixture Effects” (Pharmaceuticals, 2025).
